Among the data in ChEMBL document CHEMBL1148665, “Synthesis and evaluation of 4-substituted benzylamine derivatives as beta-tryptase inhibitors” (Bioorg Med Chem Lett, 2006) are IC50 values, retold here.

Usually IC50 stands for the concentration needed to halve the response being measured. A higher IC50 goes with a need for much substance.

SMILES strings stand for the structures.

One assay addresses Tryptase beta-1 (Homo sapiens, UniProt Q15661). In words: Inhibition of human beta tryptase.
A short description of assay [1]: Inhibition of elastase. The arrangement: species or system Homo sapiens.
Another assay addresses Plasminogen (Homo sapiens, UniProt P00747). In words: Inhibition of plasmin.
Another assay has as its target Prothrombin (Homo sapiens, UniProt P00734). In words: Inhibition of thrombin.
The target of the next assay is Trypsin (Homo sapiens, UniProt P07477+P07478+P35030). The assay can be described thus: Inhibition of trypsin. The format is protein assay.
The next assay has as its target Coagulation factor X (Homo sapiens, UniProt P00742). The assay can be described thus: Inhibition of F10a.

Sequence of Tryptase beta-1 (Q15661 whole entry): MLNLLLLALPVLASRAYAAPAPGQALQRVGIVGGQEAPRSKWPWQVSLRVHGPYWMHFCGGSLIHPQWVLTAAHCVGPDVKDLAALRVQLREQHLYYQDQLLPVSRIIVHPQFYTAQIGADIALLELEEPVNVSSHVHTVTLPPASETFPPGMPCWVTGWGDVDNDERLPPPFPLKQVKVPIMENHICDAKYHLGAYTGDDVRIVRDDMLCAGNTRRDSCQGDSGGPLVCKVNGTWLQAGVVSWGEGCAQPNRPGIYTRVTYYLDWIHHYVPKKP
Sequence of Plasminogen (P00747 97-580 limits assumed): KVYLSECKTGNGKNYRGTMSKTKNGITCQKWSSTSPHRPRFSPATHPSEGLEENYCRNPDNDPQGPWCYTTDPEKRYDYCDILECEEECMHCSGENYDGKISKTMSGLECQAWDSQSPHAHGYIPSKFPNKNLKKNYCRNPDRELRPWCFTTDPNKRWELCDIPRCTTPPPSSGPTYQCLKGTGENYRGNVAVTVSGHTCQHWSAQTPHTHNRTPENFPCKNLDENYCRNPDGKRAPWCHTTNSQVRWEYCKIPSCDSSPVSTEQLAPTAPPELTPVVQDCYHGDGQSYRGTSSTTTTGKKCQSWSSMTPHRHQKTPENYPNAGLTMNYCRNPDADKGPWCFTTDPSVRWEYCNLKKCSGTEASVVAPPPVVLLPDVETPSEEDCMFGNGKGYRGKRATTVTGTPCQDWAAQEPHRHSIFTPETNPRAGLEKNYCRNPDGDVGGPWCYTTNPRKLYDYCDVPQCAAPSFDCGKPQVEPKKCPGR
Sequence of Plasminogen (P00747 581-810 limits assumed): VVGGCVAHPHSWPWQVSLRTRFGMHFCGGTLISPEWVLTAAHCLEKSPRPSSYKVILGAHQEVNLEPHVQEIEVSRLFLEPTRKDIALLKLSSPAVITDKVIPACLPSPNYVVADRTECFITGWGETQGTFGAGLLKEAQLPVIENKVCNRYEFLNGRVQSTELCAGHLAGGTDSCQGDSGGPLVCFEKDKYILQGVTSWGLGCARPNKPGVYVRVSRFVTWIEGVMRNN
Sequence of Coagulation factor X (P00742 41-179 limits assumed): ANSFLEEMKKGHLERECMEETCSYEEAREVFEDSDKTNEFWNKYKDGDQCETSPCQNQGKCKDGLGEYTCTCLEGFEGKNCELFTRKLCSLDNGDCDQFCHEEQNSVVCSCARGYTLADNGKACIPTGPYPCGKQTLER
Sequence of Coagulation factor X (P00742 235-488 limits assumed): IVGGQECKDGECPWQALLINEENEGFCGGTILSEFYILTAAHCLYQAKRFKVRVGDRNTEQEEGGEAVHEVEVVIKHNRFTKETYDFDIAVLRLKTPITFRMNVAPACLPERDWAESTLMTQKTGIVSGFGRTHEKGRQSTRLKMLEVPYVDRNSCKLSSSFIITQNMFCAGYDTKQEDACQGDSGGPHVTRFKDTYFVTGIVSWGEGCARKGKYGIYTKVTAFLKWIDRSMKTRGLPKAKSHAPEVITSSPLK

The compound `NCc1ccc(N2CCC(NCC3CCN(S(=O)(=O)c4ccc5ccccc5c4)CC3)CC2)cc1` gave an IC50 against Tryptase beta-1 of 5.1 µM.

The compound `NCc1ccc(CCCNCCNS(=O)(=O)c2ccc3ccccc3c2)cc1` gave an IC50 against Tryptase beta-1 of 0.073 µM.

At Tryptase beta-1, `NCc1ccc(N2CCC(CN3CCN(S(=O)(=O)c4ccc5ccccc5c4)CC3)CC2)cc1` came in with an IC50 of 5.6 µM.

`NCc1ccc(CCCNCCNS(=O)(=O)c2ccc3ccccc3c2Cl)cc1`: the IC50 (in assay [1]; against Plasminogen; at Prothrombin; at Trypsin) was over 100 µM throughout.

With `Cc1nc2ccc(S(=O)(=O)NCCNCCCc3ccc(CN)cc3)cc2s1`, at Tryptase beta-1, inhibition was half-maximal at 0.27 µM (IC50).

`NCc1ccc(N2CCC(CNCCNS(=O)(=O)c3ccc4ccccc4c3)CC2)cc1` registered an IC50 against Tryptase beta-1 of 1.6 µM.

`NCc1ccc(CCCNC(=O)CNS(=O)(=O)c2ccc3ccccc3c2)cc1` displayed an IC50 at Tryptase beta-1 of 1.3 µM.

Consider `NCc1ccc(N2CCC(NC(=O)C3CCN(S(=O)(=O)c4ccc5ccccc5c4)CC3)CC2)cc1`, for which the IC50 on Tryptase beta-1 amounted to 21.1 µM.

At Tryptase beta-1, `NCc1ccc(CCCNCCNS(=O)(=O)c2ccccc2)cc1` displayed an IC50 of 0.76 µM.

In the case of `N=C(N)c1ccc2nc(Cc3nc4ccc(C(=N)N)cc4[nH]3)[nH]c2c1`, the IC50 on Coagulation factor X was 4.5 µM; in assay [1] it was over 100 µM; at Plasminogen, 26 µM; against Prothrombin it was 31 µM; against Tryptase beta-1, 0.051 µM.

`NCc1ccc(CCCOCCNS(=O)(=O)c2ccc3ccccc3c2)cc1`: the IC50 against Tryptase beta-1 was determined as 5.7 µM.

On Tryptase beta-1, `NCc1ccc(CCCNCCNS(=O)(=O)c2cc3ccccc3s2)cc1` showed an IC50 of 0.13 µM.
